The text below walks through data of patent US20030232851A1, “Viral treatment” (The Procter & Gamble Company, priority 1999, published 2003).

Converted amounts (≈) assume the structure as drawn. “And” between values parts separate entries of the source, which are not always exact repeats. Equal values may be shown once.

One data set addresses HIV-1 integrase (Human immunodeficiency virus type 1 group M subtype B, UniProt P04585). The experiment in a line: HIV-1 integrase inhibition assay. It is filed as biochemical. More on the design: HIV-1 Integrase Inhibition, sample reading / HIV-1 Integrase Inhibition, mean: unit not given here. To be noted: for HIV-1 Integrase Inhibition, sample reading: sample 1, sample 2, hydrochloride salt. From the text:
A biochemical integrase assay described by Craigie et at (HIV, vol. 2: A practical Approach) Biochemistry, Molecular Biology and Drug Discovery, Ed. J. Kam 1995) to screen agents for their ability to inhibit HIV-1 integrase. In this system, a kinased oligonucleotide serves as the target of 3′ processing and the subsequent strand transfer reaction. The 3′ processing reaction involves the removal of 2 nucleotides from the 3′ ends of the substrate and this is followed by the strand transfer reaction in which the 3′ ends are joined to the exposed 5′ ends. The 20 μl reaction mixture contains 25 mM MOPS (pH 7.2), […] BSA, 10 mM β-mercaptoethanol, 10% glycerol, 7.5 mM MnCl2, 25 nM (7 ng) substrate (Oligo's Etc., Wilsonville, Oreg.) and 200 nM (128 ng) integrase (NIAID AIDS Research and Reference Reagent Program, Bethesda, Md.). The reaction proceeds at 37° C. for 1-2 hours and is terminated by the addition of 20 μl of sequencing stop solution (JSB Amersham, Arlington Heights, Ill.). The reaction products are visualized by autoradiography following electrophoresis in 15% polyacrylamide 6M Urea gel. The substrate migrates as a 30 mer, the product of 3′ processing migrates as an N-2 band and the strand transfer products migrate more slowly at various sizes larger than the substrate.

The next data set has as its target T1, HIV-1 protease (Human immunodeficiency virus type 1 group M subtype B, UniProt P04585).
T1 construct: precludes use of the fluorometric HIV-1 protease assay; purchased Bachem
The experiment in a line: Protease inhibition assay (fluorometric). It counts as biochemical. To be noted: for Protease Inhibition, sample reading: sample 1, sample 2, hydrochloride salt. As to the method:
Protease inhibition is evaluated using a fluorometric method. Enzyme (Bachem) is diluted to 116 μgm/ml in 50 mM NaOAC, 5 mM DTT, 2 mM EDTA, 10% glycerol (pH 5.0) and stored as 10 μl samples at −20° C., HIV protease substrates I (Molecular Probes) is diluted to a working concentration of 0.32 nmoles/μl. Enzyme (20 μl) and drug (20 μl) are added to each well of a microtiter plate as appropriate. Positive and negative controls are evaluated in parallel. Fluorescence is quantitated on Labsystems Fluroskan II using 355 nm/460 nm at 37° C. at time zero and at 30 minute intervals for 2 hours. In instances where autofluorescence precludes use of the fluorometric HIV-1 protease assay or confirmation of a result is required, an HPLC based protease assay can be employed.

A further data set deals with HEPG22.2.15. The experiment in a line: Hepatitis B test: toxicity values. It is filed as cell-based.
Another data set relates to hepatitis B, HEPG22.2.15. Kind of data set: In vitro virus production test of hepatitis B, DNA copy number. It is filed as cell-based.
The next data set has as its system vero cells. More on the design: unit not given beside the values. The following applies: African green monkey.
A further data set has as its system Cryptococcus neoformans. The experiment in a line: Anti-fungal activity (NCCLS M-27A based), Cryptococcus neoformans. It counts as cell-based. Here is the method: (§1) It was active against cryptococcus neoformans and curvularai lunata. The cidal activity for the C. neoformans is high enough that it is clear […] against this yeast. This test was conducted using a method based upon NCCLS reference method M-27A published in 1997. Solvent, medium and growth controls were set-up with the tests. Once these were read to validate the test performance, the QC fungi were read to insure they had expected results. These steps validated the test system. DMSO was used as a drug-chemical solvent. […] The 90% cut-off is necessary for azoles, which are static and not cidal. The FMC or cidal level was determined by sub-culturing a sample from each tube showing no growth.

For a further data set, the system named is Curvularia lunata. The experiment in a line: Anti-fungal activity (NCCLS M-27A based), Curvularia lunata. It counts as cell-based. To be noted: growth inhibited or reduced at least 90%. As to the method:
as §1

On HIV-1 integrase, `Cl.c1csc(-c2nc3ncccc3[nH]2)c1` [2-(2-thienyl)-imidazolo [4,5-b]pyridine hydrochloride salt] gave an EC50 greater than 421 µM. The “HIV-1 Integrase Inhibition, mean” value on HIV-1 integrase (0.1 μg/ml) is 9144; on HIV-1 integrase (1 μg/ml), 12194; at HIV-1 integrase (10 μg/ml), 12299; on HIV-1 integrase (100 μg/ml) it was 10570. In addition, the “HIV-1 Integrase Inhibition, sample reading” value on HIV-1 integrase (0.1 μg/ml) is 9338.5 and 8948.8; on HIV-1 integrase (1 μg/ml), 11838.2 and 12550.7; at HIV-1 integrase (10 μg/ml), 10848.3 and 13750.3; at HIV-1 integrase (100 μg/ml), 10212.5 and 10928.4. Moreover, the “Protease Inhibition, mean” value on HIV-1 protease (1 nM) is recorded as 26.3; at HIV-1 protease (10 nM) it was 35.0; on HIV-1 protease (100 nM) it was 84.8; at HIV-1 protease (1000 nM) it was 247.3. Also, the “Protease Inhibition, sample reading” value at HIV-1 protease (1 nM) is 29.9 and 22.6; at HIV-1 protease (10 nM) it was 36.0 and 34.1; at HIV-1 protease (100 nM), 85.4 and 84.2; on HIV-1 protease (1000 nM), 245.7 and 248.8.

In the case of `Nc1ccn([C@@H]2CS[C@H](CO)O2)c(=O)n1` [3TC, lamivudine], the “Toxicity Values, % cell control” value with HEPG22.2.15 (0.0032 μg/ml) is reported as 90.8%; in the data set on HEPG22.2.15 (0.01 μg/ml), 84.6%; in the data set with HEPG22.2.15 (0.032 μg/ml), 94.3%; in the data set on HEPG22.2.15 (0.32 μg/ml) it was 93.6%; in the data set with HEPG22.2.15 (1 μg/ml), 106.5%. Moreover, the “Toxicity Values, mean” value is 1.137 in the data set with HEPG22.2.15 (0.0032 μg/ml); 1.060 in the data set on HEPG22.2.15 (0.01 μg/ml); 1.181 with HEPG22.2.15 (0.032 μg/ml); 1.190 in the data set with HEPG22.2.15 (0.1 μg/ml); 1.172 in the data set on HEPG22.2.15 (0.32 μg/ml); 1.334 in the data set on HEPG22.2.15 (1 μg/ml). Also, the “Toxicity Values, samples 1-3” value in the data set on HEPG22.2.15 (0.0032 μg/ml) was 1.009 and 1.173 and 1.230; in the data set on HEPG22.2.15 (0.01 μg/ml) it was 1.001 and 1.081 and 1.099; with HEPG22.2.15 (0.032 μg/ml), 1.074 and 1.153 and 1.316; in the data set on HEPG22.2.15 (0.1 μg/ml), 1.151 and 1.220 and 1.200; in the data set on HEPG22.2.15 (0.32 μg/ml), 1.082 and 1.207 and 1.227; in the data set on HEPG22.2.15 (1 μg/ml), 1.423 and 1.256 and 1.322. For the same compound, the TC50 with HEPG22.2.15 (first experiment) and in the data set on HEPG22.2.15 (replicate experiment) was greater than 1 µg/mL each time. Besides, the “DNA Copy Number, % virus control” value was 97.8% in the data set with hepatitis B, HEPG22.2.15 (0.0032 μg/ml); 87.8% with hepatitis B, HEPG22.2.15 (0.01 μg/ml); 80.4% with hepatitis B, HEPG22.2.15 (0.032 μg/ml); 24.2% with hepatitis B, HEPG22.2.15 (0.1 μg/ml); 13.1% in the data set with hepatitis B, HEPG22.2.15 (0.32 μg/ml); 1.4% in the data set on hepatitis B, HEPG22.2.15 (1 μg/ml). Also, the “DNA Copy Number, mean” value was 280.4 per 3 μl in the data set on hepatitis B, HEPG22.2.15 (0.0032 μg/ml); 251.7 per 3 μl in the data set with hepatitis B, HEPG22.2.15 (0.01 μg/ml); 230.4 per 3 μl in the data set on hepatitis B, HEPG22.2.15 (0.032 μg/ml); 69.4 per 3 μl in the data set with hepatitis B, HEPG22.2.15 (0.1 μg/ml); 46.1 per 3 μl in the data set on hepatitis B, HEPG22.2.15 (0.32 μg/ml); 4.0 per 3 μl with hepatitis B, HEPG22.2.15 (1 μg/ml). Further, the “DNA Copy Number, samples 1-3” value is 265.4 per 3 μl and 328.0 per 3 μl and 247.9 per 3 μl in the data set on hepatitis B, HEPG22.2.15 (0.0032 μg/ml); 286.1 per 3 μl and 276.7 per 3 μl with hepatitis B, HEPG22.2.15 (0.01 μg/ml); 243.2 per 3 μl and 255.3 per 3 μl in the data set on hepatitis B, HEPG22.2.15 (0.032 μg/ml); 73.0 per 3 μl and 74.8 per 3 μl and 60.5 per 3 μl with hepatitis B, HEPG22.2.15 (0.1 μg/ml); 36.7 per 3 μl and 45.1 per 3 μl and 56.5 per 3 μl in the data set on hepatitis B, HEPG22.2.15 (0.32 μg/ml). The IC50 with hepatitis B, HEPG22.2.15 (HepG2 2.2.15, first experiment) was determined as 0.089 µg/mL (≈ 0.388 µM); with hepatitis B, HEPG22.2.15 (HepG2 2.2.15, replicate experiment), 0.021 µg/mL (≈ 0.0916 µM).

`Nc1nc2c(ncn2COCCO)c(=O)[nH]1` [Acyclovir] registered a TC50 in the data set on vero cells greater than 1.

For the compound `C[C@@H]1[C@H](O)[C@@H](C)/C=C/C=C/C=C/C=C/C=C/C=C/C=C/[C@H](O[C@@H]2O[C@H](C)[C@@H](O)[C@H](N)[C@@H]2O)C[C@@H]2O[C@](O)(C[C@@H](O)C[C@@H](O)[C@H](O)CC[C@@H](O)C[C@@H](O)CC(=O)O[C@H]1C)C[C@H](O)[C@H]2C(=O)O` [AmB, amphotericin B], in the data set with Cryptococcus neoformans (cidal level), the MFC data was 1 µg/mL (≈ 1.08 µM). For the same compound, the MIC data against Cryptococcus neoformans (growth inhibited or reduced at least 90%) came out at 0.25 µg/mL (≈ 0.271 µM); against Curvularia lunata, 0.03 µg/mL (≈ 0.0325 µM).

As usually defined, the EC50 is the concentration that produces a half-maximal response. As a reminder, the IC50 is the concentration needed to halve the response being measured.
